Test results published in US9981909B2 (Janssen Pharmaceutica NV, priority 2008, dated 2018).
Structures can show the parent of a compound that is named as a salt.

What was measured:
rat 5-HT7 receptor = rat 5-HT7 receptor (Rattus norvegicus (Rat), UniProt P32305); assay: r5-HT7 binding assay, competitive radioligand binding with [3H]5-CT
Summary of the method: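 For antagonism, cells expressing the rat receptor are pretreated with compound (10 min) and stimulated with 100 nM 5-CT (20 min). Lysates are assayed for cAMP by competitive immunoassay. Binding uses [3H]5-CT competition on HEK-293 membranes, giving Ki.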

r5-HT7 receptor = r5-HT7 receptor (Rattus norvegicus (Rat), UniProt P32305); assay: HitHunter cAMP assay, antagonist testing against 100 nM 5-CT; format: cell-based; conditions: antagonist testing, 100 nM 5-CT challenge, HEK-293 r5-HT7; read-out: R5HT7 cAMP pKb (converted)
r5-HT7 receptor, sequence (P32305 1-435): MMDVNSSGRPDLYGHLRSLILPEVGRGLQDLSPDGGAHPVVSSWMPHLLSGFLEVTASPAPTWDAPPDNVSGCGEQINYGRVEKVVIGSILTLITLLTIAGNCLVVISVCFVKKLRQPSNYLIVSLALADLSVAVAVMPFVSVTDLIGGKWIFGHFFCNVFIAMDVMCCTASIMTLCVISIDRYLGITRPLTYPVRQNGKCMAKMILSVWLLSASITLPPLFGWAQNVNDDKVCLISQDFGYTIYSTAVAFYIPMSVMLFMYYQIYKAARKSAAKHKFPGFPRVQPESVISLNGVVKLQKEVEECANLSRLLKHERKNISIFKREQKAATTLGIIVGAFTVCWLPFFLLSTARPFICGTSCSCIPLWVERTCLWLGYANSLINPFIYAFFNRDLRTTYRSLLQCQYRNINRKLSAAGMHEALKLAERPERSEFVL
Method: (§1) Receptor binding was performed using membrane fractions prepared from the HEK-293 cell line recombinantly expressing rat 5-HT7 receptors (NCBI accession NM_022938). Compound affinity for the rat 5-HT7 receptor subtype was evaluated by competitive radioligand binding assays using 5-carboxamido[^3H]tryptamine ([^3H]5-CT) (Amersham Biosciences, cat. 90000403) detection. HitHunter™ cAMP assays are in-vitro based competitive immunoassays. The assay was performed on the HEK-293 cell line stably transfected with r5-HT7 receptor. Cells were pre-incubated with test compounds for 10 minutes. For antagonist testing, the cells were then challenged with 100 nM 5-CT for 20 minutes. Cells were then lysed and cAMP measured according to manufacturers protocol (Amersham, cat. NET791250UC) or [^3H]mesulergine (Amersham, cat. TRK1041). The assay was performed on membranes prepared from HEK-293 cells stably transfected with h5-HT6. Following centrifugation, membranes were resuspended and incubated for 60 min at room temperature with 1.7 nM [^3H]LSD in the presence of increasing concentration of test compounds. Nonspecific binding was defined in the presence of 10 μM clozapine (Tocris, cat. TRK1068). Homogenized HEK-293 membranes expressing the human SERT were incubated in 50 mM Tris-HCl (pH 7.5), 120 mM NaCl, 5 mM KCl with [^3H]-citalopram (3 nM) with or without test compounds. Nonspecific binding was determined in the presence of 10 μM fluoxetine. Radioactivity readouts and Ki values were performed as previously described for r5-HT7. […] Compounds were assayed in their free form or as salts, as indicated in the Examples section above.

human SERT = human SERT (Homo sapiens (Human), UniProt P31645); assay: human SERT binding assay with [3H]-citalopram on HEK-293 membranes; conditions: read-out: hSERT binding Ki
human SERT, sequence (P31645 whole entry): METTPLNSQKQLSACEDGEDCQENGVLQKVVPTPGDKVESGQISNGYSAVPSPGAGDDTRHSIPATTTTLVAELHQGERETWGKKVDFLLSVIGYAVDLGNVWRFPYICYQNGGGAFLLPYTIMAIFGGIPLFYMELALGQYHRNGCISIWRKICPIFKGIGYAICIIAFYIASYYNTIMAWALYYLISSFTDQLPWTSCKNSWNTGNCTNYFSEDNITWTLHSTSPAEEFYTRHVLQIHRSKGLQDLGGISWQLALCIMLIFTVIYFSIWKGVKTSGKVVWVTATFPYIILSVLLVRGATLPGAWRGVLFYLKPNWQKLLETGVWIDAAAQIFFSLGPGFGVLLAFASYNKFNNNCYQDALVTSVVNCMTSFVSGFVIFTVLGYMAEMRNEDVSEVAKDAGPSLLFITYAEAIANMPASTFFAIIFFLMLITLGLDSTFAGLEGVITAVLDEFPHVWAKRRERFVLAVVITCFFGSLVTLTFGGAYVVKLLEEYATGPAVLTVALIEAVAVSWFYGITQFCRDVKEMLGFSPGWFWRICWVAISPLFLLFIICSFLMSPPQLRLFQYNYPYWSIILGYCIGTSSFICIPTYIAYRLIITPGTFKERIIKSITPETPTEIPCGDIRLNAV
Method: as §1

[1] = rat 5-HT7 receptor, HEK-293 membranes

rat 5-HT7 receptor, sequence (P32305 1-435): as the sequence (P32305 1-435) above

SMILES	Ki (rat 5-HT7 receptor; [1])	Kb (r5-HT7 receptor)	Ki (rat 5-HT7 receptor; rat 5-HT7, HEK-293 membranes)	Ki (human SERT)
CCN1CC(Oc2cc(Br)ccc2OCc2cccc(Cl)c2)C1 [Example 6, 3-[5-Bromo-2-(3-chloro-benzyloxy)-phenoxy]-1-ethyl-azetidine]	0.006 µM	0.00398 µM	–	0.249 µM
Fc1ccc(COc2ccc(Cl)cc2OC2CNC2)cc1 [Example 25, 3-[5-Chloro-2-(4-fluoro-benzyloxy)-phenoxy]-azetidine hydrochloride]	0.018 µM	0.0398 µM	–	0.019 µM
CC(Oc1ccc(Cl)cc1OC1CNC1)c1cccc(C(F)(F)F)c1 (racemic) [Example 105, (±)-3-[5-Chloro-2-[1-(3-trifluoromethyl-phenyl)-ethoxy]-phenoxy]-azetidine]	0.023 µM	0.0501 µM	–	0.193 µM
FC(F)(F)Oc1cccc(COc2ccc(Br)cc2OC2CNC2)c1 [Example 7, 3-[5-Bromo-2-(3-trifluoromethoxy-benzyloxy)-phenoxy]-azetidine]	0.01 µM	0.0631 µM	–	0.023 µM
Fc1ccc2c(c1)C(Oc1ccc(Cl)cc1OC1CNC1)CC2 (racemic) [Example 150, (±)-3-[5-Chloro-2-(6-fluoro-indan-1-yloxy)-phenoxy]-azetidine]	0.01 µM	0.01 µM	–	0.013 µM
CCCN1CC(Oc2cc(Br)ccc2OCc2cccc(F)c2)C1 [Example 19, 3-[5-Bromo-2-(3-fluoro-benzyloxy)-phenoxy]-1-propyl-azetidine]	0.004 µM	0.002 µM	–	0.396 µM
Clc1ccc(OCc2ccccc2Cl)c(OC2CNC2)c1 [Example 35, 3-[5-Chloro-2-(2-chloro-benzyloxy)-phenoxy]-azetidine trifluroacetate]	0.023 µM	1 µM	–	0.003 µM
Fc1ccc(COc2ccc(Br)cc2OC2CNC2)cc1Cl [Example 12, 3-[5-Bromo-2-(3-chloro-4-fluoro-benzyloxy)-phenoxy]-azetidine]	0.011 µM	0.00316 µM	–	0.006 µM
O=C(c1ccc2c(c1)OCO2)c1ccc(Br)cc1OC1CNC1 [Example 289, [2-(Azetidin-3-yloxy)-4-bromo-phenyl]-benzo[1,3]dioxol-5-yl-methanone]	–	0.0398 µM	0.034 µM	0.437 µM
Fc1cccc(COc2ccc(Br)cc2OC2CCNCC2)c1 [Example 68, 4-[5-Bromo-2-(3-fluoro-benzyloxy)-phenoxy]-piperidine]	0.017 µM	0.631 µM	–	–
CCCN1CC(Oc2cc(Br)ccc2OCc2cccc(Cl)c2)C1 [Example 4, 3-[5-Bromo-2-(3-chloro-benzyloxy)-phenoxy]-1-propyl-azetidine]	0.008 µM	0.000631 µM	–	–
Fc1ccccc1COc1ccc(Br)cc1OC1CCNCC1 [Example 67, 4-[5-Bromo-2-(2-fluoro-benzyloxy)-phenoxy]-piperidine]	0.013 µM	0.398 µM	–	–
Clc1ccc(Oc2ccc(Cl)cc2OC2CNC2)cc1 [Example 258, 3-[5-Chloro-2-(4-chloro-phenoxy)-phenoxy]-azetidine trifluoroacetate]	–	0.501 µM	0.023 µM	–
CN1CCC(Oc2cc(Br)ccc2OCc2cccc(Cl)c2)CC1 [Example 66, 4-[5-Bromo-2-(3-chloro-benzyloxy)-phenoxy]-1-methyl-piperidine]	0.01 µM	0.0501 µM	–	–
CN1CC(Oc2cc(Cl)ccc2OCc2cc(CO)c(C(F)(F)F)o2)C1 [Example 77]	0.153 µM	–	–	5 µM
CC(Oc1ccc(Cl)cc1OC1CNC1)c1ccccc1 (racemic) [Example 145, (±)-3-[5-Chloro-2-(1-phenyl-ethoxy)-phenoxy]-azetidine]	0.04 µM	–	–	0.773 µM
Clc1ccc(OC2CC(c3ccccc3)C2)c(OC2CNC2)c1 (stereo not shown) [Example 228, 3-[5-Chloro-2-(3-phenyl-cyclobutoxy)-phenoxy]-azetidine]	–	–	0.009 µM	0.072 µM
Clc1ccc(OCc2cccnc2)c(OC2CNC2)c1 [Example 52, 3-[2-(Azetidin-3-yloxy)-4-chloro-phenoxymethyl]-pyridine]	0.11 µM	–	–	0.089 µM
Clc1ccc(OCc2ccncc2)c(OC2CNC2)c1 [Example 53, 4-[2-(Azetidin-3-yloxy)-4-chloro-phenoxymethyl]-pyridine]	0.26 µM	–	–	0.464 µM
FC(F)(F)c1ccccc1COc1ccc(Cl)cc1OC1CNC1 [Example 32, 3-[5-Chloro-2-(2-trifluoromethyl-benzyloxy)-phenoxy]-azetidine]	0.053 µM	–	–	0.029 µM
FC(F)(F)c1ccc(COc2ccc(Br)cc2OC2CCNCC2)o1 [Example 64, 4-[5-Bromo-2-(5-trifluoromethyl-furan-2-ylmethoxy)-phenoxy]-piperidine]	0.017 µM	–	–	0.043 µM
Clc1ccc(OCc2csc(-c3cccs3)n2)c(OC2CNC2)c1 [Example 28, 4-[2-(Azetidin-3-yloxy)-4-chloro-phenoxymethyl]-2-thiophen-2-yl-thiazole]	0.049 µM	–	–	0.683 µM
Cn1nnc2ccc(COc3ccc(Cl)cc3OC3CNC3)cc21 [Example 85, 6-[2-(Azetidin-3-yloxy)-4-chloro-phenoxymethyl]-1-methyl-1H-benzotriazole]	0.095 µM	–	–	0.404 µM

Second part, led by results:

Ki (rat 5-HT7 receptor; [1])	Kb (r5-HT7 receptor)	Ki (rat 5-HT7 receptor; rat 5-HT7, HEK-293 membranes)	SMILES	Ki (human SERT)
–	0.501 µM	0.021 µM	Clc1cccc(Oc2ccc(Cl)cc2OC2CNC2)c1 [Example 257, 3-[5-Chloro-2-(3-chloro-phenoxy)-phenoxy]-azetidine maleate]	–
–	0.2 µM	0.009 µM	Brc1cccc(Oc2ccc(Br)cc2OC2CNC2)c1 [Example 245, 3-[5-Bromo-2-(3-bromo-phenoxy)-phenoxy]-azetidine]	–
–	0.316 µM	0.048 µM	O=C(c1ccc(Cl)cc1)c1ccc(Br)cc1OC1CNC1 [Example 281, [2-(Azetidin-3-yloxy)-4-bromo-phenyl]-(4-chloro-phenyl)-methanone]	–
–	0.2 µM	0.039 µM	O=C(c1cccc(Cl)c1)c1ccc(Br)cc1OC1CNC1 [Example 282, [2-(Azetidin-3-yloxy)-4-bromo-phenyl]-(3-chloro-phenyl)-methanone]	–
0.04 µM	0.0316 µM	–	Brc1ccc(OC2CCc3ccccc32)c(OC2CNC2)c1 (racemic) [Example 151, (±)-3-[5-Bromo-2-(indan-1-yloxy)-phenoxy]-azetidine]	–
–	0.501 µM	0.018 µM	FC(F)(F)Oc1cccc(Oc2ccc(Br)cc2OC2CNC2)c1 [Example 253, 3-[5-Bromo-2-(3-trifluoromethoxy-phenoxy)-phenoxy]-azetidine]	–
0.02 µM	0.0158 µM	–	CCN1CC(Oc2cc(F)ccc2OCc2cccc(Cl)c2)C1 [Example 207, 3-[2-(3-Chloro-benzyloxy)-5-fluoro-phenoxy]-1-ethyl-azetidine]	–
–	0.158 µM	0.011 µM	Clc1ccc(Oc2ccc(Br)cc2OC2CNC2)cc1 [Example 251, 3-[5-Bromo-2-(4-chloro-phenoxy)-phenoxy]-azetidine]	–
0.252 µM	> 10 µM	–	Cc1ccc2c(c1)C(Oc1ccc(Br)cc1OC1CNC1)CC2 (racemic) [Example 156, (±)-3-[5-Bromo-2-(6-methyl-indan-1-yloxy)-phenoxy]-azetidine]	–
0.023 µM	0.0316 µM	–	CC(Oc1ccc(Br)cc1OC1CNC1)c1cccc(C(F)(F)F)c1 (racemic) [Example 112, (±)-3-[5-Bromo-2-[1-(3-trifluoromethyl-phenyl)-ethoxy]-phenoxy]-azetidine]	–
–	–	0.493 µM	C[C@@H]1[C@H](Oc2cc(Br)ccc2OCc2cccc(F)c2)CN1Cc1ccccc1 (relative stereo) [Example 220, cis-1-Benzyl-3-[5-bromo-2-(3-fluoro-benzyloxy)-phenoxy]-2-methyl-azetidine]	0.789 µM
0.365 µM	–	–	Fc1ccc(OCc2ccc(C(F)(F)F)o2)c(OC2CNC2)c1 [Example 208, 3-[5-Fluoro-2-(5-trifluoromethyl-furan-2-ylmethoxy)-phenoxy]-azetidine]	0.303 µM
0.084 µM	0.0631 µM	–	Clc1ccc2c(c1)C(Oc1ccc(Br)cc1OC1CNC1)CC2 (racemic) [Example 153, (±)-3-[5-Bromo-2-(6-chloro-indan-1-yloxy)-phenoxy]-azetidine]	–
–	–	0.031 µM	Clc1ccc(Oc2nc3ccccc3o2)c(OC2CNC2)c1 [Example 262, 2-[2-(Azetidin-3-yloxy)-4-chloro-phenoxy]-benzooxazole]	0.112 µM
0.036 µM	–	–	FC(COc1ccc(Cl)cc1OC1CNC1)c1ccccc1 (stereo not shown) [Example 187, 3-[5-Chloro-2-(2-fluoro-2-phenyl-ethoxy)-phenoxy]-azetidine]	0.34 µM
